Data as given in PubChem BioAssay AID1648 (Sanford-Burnham Center for Chemical Genomics, 2009).
The source made the active and inactive calls. No rule for the calls is given here.

Each compound was assayed against Serine/threonine-protein kinase mTOR (Homo sapiens) (UniProt P42345) (assay: binders of mTOR FRB domain, biophysical, NMR (AID 1648)). Settings: NMR binding to FRB domain, chemical shift.
Chain of Serine/threonine-protein kinase mTOR (Homo sapiens) (P42345 2015-2114): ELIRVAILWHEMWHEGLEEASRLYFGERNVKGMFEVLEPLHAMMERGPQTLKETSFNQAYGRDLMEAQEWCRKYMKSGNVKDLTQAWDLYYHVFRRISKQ

Row | SMILES | Kd
1 | CC(=O)O[C@H]1CC[C@@]2(C)C(C[C@@H](OC(C)=O)[C@@]3(C)C4=CC(=O)O[C@@H](c5ccoc5)[C@]4(C)CCC23)C1(C)C (stereo partly drawn) | > 4 mM (inactive)
2 | C=CCn1c(-c2ccc(O)cc2)n[nH]c1=S | > 4 mM (inactive)
3 | CN(C)C(=O)Nc1ccc(F)cc1F | > 4 mM (inactive)
4 | CN1CCN(CC(=O)N2CCc3ccccc32)CC1 | > 4 mM (inactive)
5 | Cc1nnc2sc(-c3ccco3)nn12 | > 4 mM (inactive)
6 | CC(=O)c1cc2c(s1)SCC(=O)N2 | > 4 mM (inactive)
7 | O=C(O)Cn1cc(C(F)(F)F)ccc1=O | > 4 mM (inactive)
8 | O=C(O)C1CC(C2CCCCN2)CN2CCCCC12 (stereo not drawn) | > 4 mM (inactive)
9 | C[C@@H]1C(=O)O[C@H]2[C@H]1CC[C@@]1(C)C=CC(=O)[C@@]3(C)O[C@@]213 | > 4 mM (inactive)
10 | CC(C)CCCC(C)[C@H]1CCC2C3CC=C4CC(=O)CC[C@]4(C)C3CC[C@@]21C (stereo partly drawn) | > 4 mM (inactive)
11 | COc1ccc(-c2nc(C)sc2CC(=O)O)cc1 | > 4 mM (inactive)
12 | O=C(Nc1nnc(-c2ccccc2Cl)o1)c1ccco1 | > 4 mM (inactive)
13 | Nc1ccccc1C(=O)CC(N)C(=O)O (stereo not drawn) | > 4 mM (inactive)
14 | COc1ccc(/C=C/c2cc(O)cc(O)c2)cc1 | > 4 mM (inactive)
15 | Cc1ccc(NC(=O)CN2C(=O)CSC2=O)cc1 | > 4 mM (inactive)
16 | CSc1nc2nc(C)cc(=O)n2[nH]1 | > 4 mM (inactive)
17 | O=C(O)c1ccc(CN2CCOCC2)cc1 | > 4 mM (inactive)
18 | COCCOc1nc2ccccc2nc1C | > 4 mM (inactive)
19 | Cc1nc(N)sc1C(=O)Nc1nccs1 | > 4 mM (inactive)
20 | Cc1oc(S(=O)(=O)N2CCCCC2)cc1C(=O)O | > 4 mM (inactive)
21 | CC(=O)OC1CCC23CC1(C)CCC2C(C)(C)CC3OC(C)=O (stereo not drawn) | > 4 mM (inactive)
22 | COC(=O)c1[nH]c2ccccc2c1C(=O)OC | > 4 mM (inactive)
23 | CCn1nnnc1Oc1ccc(Cl)cc1 | > 4 mM (inactive)
24 | Nc1ccc(O)cn1 | > 4 mM (inactive)
25 | O=C(CN1CCOCC1)Nc1cccc(Br)c1 | > 4 mM (inactive)

Row | SMILES | Kd
26 | COC(=O)C1=C(C)N(c2cccc(C(C)=O)c2)C(=O)C1 | > 4 mM (inactive)
27 | Cc1ccc(-n2cnnn2)c2cccnc12 | > 4 mM (inactive)
28 | NC(=O)CNC(=O)c1ccccc1 | > 4 mM (inactive)
29 | COc1cc([C@@H]2c3cc4c(cc3[C@H](OC(C)=O)[C@H]3COC(=O)[C@H]23)OCO4)cc(OC)c1OC | > 4 mM (inactive)
30 | C=CCc1ccc(OC(=O)c2ccccc2)c(OC)c1 | > 4 mM (inactive)
31 | CNC(=O)Oc1ccc2c(c1)[C@]1(C)CCN(C)[C@@H]1N2C | > 4 mM (inactive)
32 | Nc1ccncc1 | > 4 mM (inactive)
33 | COc1ccccc1NC(=O)C1CCCCC1 | > 4 mM (inactive)
34 | S=c1[nH]nc(-c2cccnc2)n1Cc1ccccc1 | > 4 mM (inactive)
35 | O=C(Nc1ccc2c(c1)OCO2)c1cccc(F)c1 | > 4 mM (inactive)
36 | COc1ccc2c(c1)OCC(Cc1ccc(OC)c(O)c1)C2=O (stereo not drawn) | > 4 mM (inactive)
37 | Cc1cc2cc(N)ccc2[nH]1 | > 4 mM (inactive)
38 | Cc1occc1C(=O)NCc1ccccc1F | > 4 mM (inactive)
39 | O=C(NCc1cccnc1)c1ccccn1 | > 4 mM (inactive)
40 | CC(=O)Oc1ccc2c(c1OC(C)=O)OCC1(O)Cc3c(cc(OC(C)=O)c(OC(C)=O)c3OC(C)=O)C21 (stereo not drawn) | > 4 mM (inactive)
41 | CC1(C)CC2(CCO1)NCCN1C(=O)CSC12 (stereo not drawn) | > 4 mM (inactive)
42 | O=C(O)CCn1cncn1 | > 4 mM (inactive)
43 | NCCc1ccc(S(N)(=O)=O)cc1 | > 4 mM (inactive)
44 | CN1C(=O)CC[C@H]1c1cccnc1 | > 4 mM (inactive)
45 | Cc1nc2ccc(F)cc2cc1C(=O)NCc1ccco1 | > 4 mM (inactive)
46 | Nc1ccc(-c2cnco2)cc1 | > 4 mM (inactive)
47 | NC(=O)CCS(=O)(=O)CCN1CCOCC1 | > 4 mM (inactive)
48 | Cc1ccc2c(C)c(C(=O)Nc3nnc(C)s3)oc2c1 | > 4 mM (inactive)
49 | CC1=CC2C(C(C)C)CCC(C)(O)C2CC1 (stereo not drawn) | > 4 mM (inactive)
50 | O=C1OCCC1Sc1nc2ccccc2c(=O)[nH]1 (stereo not drawn) | > 4 mM (inactive)

Row | SMILES | Kd
51 | O=S1(=O)CCC2CC=CCC21 (stereo not drawn) | > 4 mM (inactive)
52 | COc1nc(C)ccc1-c1noc(-c2ccco2)n1 | > 4 mM (inactive)
53 | c1ccc(C2NCCc3[nH]cnc32)cc1 (stereo not drawn) | > 4 mM (inactive)
54 | Cc1n[nH]c(C)c1N | > 4 mM (inactive)
55 | CCn1cnc(C(=O)NC)c1C(=O)NC | > 4 mM (inactive)
56 | O=C(O)Cc1c[nH]c2ccccc12 | > 4 mM (inactive)
57 | Oc1cc(O)c2c(c1)O[C@H](c1cc(O)c(O)c(O)c1)[C@H](O)C2 | > 4 mM (inactive)
58 | O=C(O)C(O)C(O)C(O)C(O)C(=O)O (stereo not drawn) | > 4 mM (inactive)
59 | Clc1ccccc1OCc1nc(-c2ccccn2)no1 | > 4 mM (inactive)
60 | COC(=O)CC1SC(=O)NC1=O (stereo not drawn) | > 4 mM (inactive)
61 | OC1CCN(c2nccc(C(F)(F)F)n2)CC1 | > 4 mM (inactive)
62 | C[C@@H]1CC[C@@]2(NC1)O[C@H]1C[C@H]3C4CC=C5C[C@@H](O)CC[C@]5(C)C4CC[C@]3(C)C1[C@@H]2C (stereo partly drawn) | > 4 mM (inactive)
63 | CCC1=Nc2ccccc2-c2nnc(SC)nc2O1 | > 4 mM (inactive)
64 | CCNS(=O)(=O)c1cc(Br)ccc1OC | > 4 mM (inactive)
65 | CC(CC(=O)O)n1cccn1 (stereo not drawn) | > 4 mM (inactive)
66 | c1ccc(-c2noc(-c3ccco3)n2)nc1 | > 4 mM (inactive)
67 | CN1CCCCC1c1ccc(-c2cccnc2)nc1 (stereo not drawn) | > 4 mM (inactive)
68 | O=C(NCc1cccc(Cl)c1)c1cccnc1 | > 4 mM (inactive)
69 | Brc1cccc(-c2nnco2)c1 | > 4 mM (inactive)
70 | c1ccc2c(c1)CN1CCCC1=N2 | > 4 mM (inactive)
71 | OCc1ccc(Oc2ccccc2)nc1 | > 4 mM (inactive)
72 | CC(C)NC1CS(=O)(=O)CC1O (stereo not drawn) | > 4 mM (inactive)
73 | CCOC(=O)CN1C(=O)c2ccccc2C1=O | > 4 mM (inactive)
74 | NC(=O)NC1NC(=O)NC1=O (stereo not drawn) | > 4 mM (inactive)
75 | COc1ccc(NC(=O)C(N)=O)cc1Cl | > 4 mM (inactive)

Row | SMILES | Kd
76 | NC(=O)C1CCN(C(=O)CN2CCc3ccccc32)CC1 | > 4 mM (inactive)
77 | OC1CCN(Cc2ccc[nH]2)CC1 | > 4 mM (inactive)
78 | COc1ccc2c(c1)OCC(Cc1ccc(OC)c(OC)c1)C2=O (stereo not drawn) | > 4 mM (inactive)
79 | O=C(O)c1ccc(Oc2ccccc2)nc1 | > 4 mM (inactive)
80 | O=C1CSC(=Nc2ccc(C(=O)O)cc2)N1 | > 4 mM (inactive)
81 | O=C(c1cccc(C(F)(F)F)c1)N1CCCC1 | > 4 mM (inactive)
82 | CC(=O)c1c(C)nn(CC(=O)O)c1C | > 4 mM (inactive)
83 | CSc1nnc2[nH]c(=O)cc(N)n12 | > 4 mM (inactive)
84 | CC(=O)NC1(NC(C)=O)CCN(C)CC1 | > 4 mM (inactive)
85 | COc1cc([C@@H]2c3cc4c(cc3[C@H](O)[C@H]3COC(=O)[C@@H]23)OCO4)cc(OC)c1OC | > 4 mM (inactive)
86 | COc1cc(C(C)=O)cc(OC)c1O | > 4 mM (inactive)
87 | CC(=O)Nc1cnn(-c2ccccc2)c(=O)c1Cl | > 4 mM (inactive)
88 | Cc1nn2c(-c3ccco3)nnc2c2ccccc12 | > 4 mM (inactive)
89 | Nc1cc(N)nc(SCc2ccccc2)n1 | > 4 mM (inactive)
90 | NC(=O)c1ccsc1NC(=O)C1=COCCO1 | > 4 mM (inactive)
91 | NCc1csc2ccccc12 | > 4 mM (inactive)
92 | CC(=O)Nc1ccc(NC(C)=O)c(C(F)(F)F)c1 | > 4 mM (inactive)
93 | Cc1nc(-c2cc(CO)no2)cs1 | > 4 mM (inactive)
94 | OCc1ccccc1N1CCOCC1 | > 4 mM (inactive)
95 | CC1=C(/C=C/C(C)=C/C=C/C(C)=C/C=C/C=C(C)/C=C/C=C(C)/C=C/C2=C(C)CCCC2(C)C)C(C)(C)CCC1 | > 4 mM (inactive)
96 | CC(=O)OC[C@@]1(O)C[C@@]23CCC4c5ccoc5CC[C@]4(C)C2CC[C@@H]1C3 (stereo partly drawn) | > 4 mM (inactive)
97 | Nc1cccc(OC(F)(F)F)c1 | > 4 mM (inactive)
98 | CC(=O)Nc1c(C)n(C)n(-c2ccccc2)c1=O | > 4 mM (inactive)
99 | CN1CCN(C2CCSC2)CC1 (stereo not drawn) | > 4 mM (inactive)
100 | O=C(CNC(=O)c1ccc(F)cc1)NC1=NCCS1 | > 4 mM (inactive)

Row | SMILES | Kd
101 | O=c1nc(N2CCCCC2)nc2n1CCO2 | > 4 mM (inactive)
102 | CSc1cc(C)[nH]c(=O)n1 | > 4 mM (inactive)
103 | O=C(CSc1ccnc(=O)[nH]1)NCc1ccccc1 | > 4 mM (inactive)
104 | COc1cc(/C=C2/NC(=S)NC2=O)cc(Cl)c1O | > 4 mM (inactive)
105 | Cc1oc(-c2ccccc2)nc1CC(=O)O | > 4 mM (inactive)
106 | O=C(O)c1cccc(-n2cccc2)c1 | > 4 mM (inactive)
107 | COc1cccc(NC(=O)c2ocnc2C)c1 | > 4 mM (inactive)
108 | COc1ccc2c(c1OC)OC[C@@H](c1ccc(OC)c(OC)c1OC)C2 | > 4 mM (inactive)
109 | Cc1nc(SCC(=O)c2c[nH]c3ccccc23)n[nH]1 | > 4 mM (inactive)
110 | CC(=O)Nc1nnc(-c2ccncc2)s1 | > 4 mM (inactive)
111 | O=C1NCCCC1C(=O)N1CCCCC1 (stereo not drawn) | > 4 mM (inactive)
112 | O=C(O)c1cccnc1N1CCOCC1 | > 4 mM (inactive)
113 | COc1cc(OC)c(-c2c(OC)cc(OC)cc2OC)c(OC)c1 | > 4 mM (inactive)
114 | O=C(O)C1CSC(c2ccc(Cl)cc2)N1 (stereo not drawn) | > 4 mM (inactive)
115 | O=C(O)c1ccc(CSc2ncn[nH]2)cc1 | > 4 mM (inactive)
116 | CCC1(CC)C(=O)NC(=O)N=C1N | > 4 mM (inactive)
117 | CC(=O)Nc1cccc(NC(=O)c2cccnc2)c1 | > 4 mM (inactive)
118 | NC1=NC(=O)C(Cc2ccccc2)S1 (stereo not drawn) | > 4 mM (inactive)
119 | O=C1Nc2ccccc2C1C1(O)C(=O)Nc2ccc(F)cc21 (stereo not drawn) | > 4 mM (inactive)
120 | O=C(NC(=S)NCCO)c1ccccc1 | > 4 mM (inactive)
121 | Cc1nc2ccccc2c(=O)n1N1C(=O)CCCC1=O | > 4 mM (inactive)
122 | N#CCCn1ccnc1-c1ccccc1 | > 4 mM (inactive)
123 | Cc1cc(=O)c2c(O)cc(O)c(C)c2o1 | > 4 mM (inactive)
